From PMC4503722, “Novel Phenotypic Outcomes Identified for a Public Collection of Approved Drugs from a Publicly Accessible Panel of Assays” (PLoS ONE, 2015)
Read-outs that look alike come from different tables or passages of the source.

Key:
[1] = test system: HCT116; test: cells; assay type: cell-based; details: for Basal_Viability ATP HCT116 IC50/EC50: assay number 25, basal
[2] = test system: DLD-1; test: cells; assay type: cell-based; details: for Basal_Viability ATP DLD-1 IC50/EC50: assay number 23
[3] = test system: HeLa cells; test: cells; assay type: cell-based; details: for Hela CellCycMod PI 2N IC50/EC50: assay number 14; for Hela CellCycMod PI S Phase IC50/EC50: assay number 15; for Hela CellCycMod PI 4N IC50/EC50: assay number 16; for Hela CellCycMod PI MI IC50/EC50: assay number 17; for Hela CellCycMod PI Cell Number IC50/EC50: assay number 18;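 on Hela CellCycMod PI 4N summarized IC50: value tracks stimulation of 4N DNA content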
[4] = molecular target: T1, hKDR (Homo sapiens, UniProt P35968); test: Cerep LANCE kinase assay hKDR (S1 assay 32); assay type: biochemical; details: for hKDR LANCE IC50/EC50: assay number 32
T1 construct: purchased Cerep (LANCE kinase assay platform, contract assay)

[5] = test system: HCT116 cells treated with a GSK3β inhibitor; test: cells; assay type: cell-based; details: for GSK3b inh pretreated_Viability ATP HCT116 IC50/EC50: assay number 26, GSK3b inhibitor pretreated
[6] = test system: endothelial tube formation in co-cultures of ECFCs and ADSCs treated with VEGF; test: cells; assay type: cell-based, human
[7] = molecular target: T2, hGSK3b (Homo sapiens, UniProt P49841); test: Cerep LANCE kinase assay hGSK3b (S1 assay 34); assay type: biochemical; details: for hGSK3b LANCE IC50/EC50: assay number 34
T2 construct: purchased Cerep (LANCE kinase assay platform, contract assay)

[8] = molecular target: T3, hp70S6K1 (RPS6KB1) (Homo sapiens, UniProt P23443); test: Cerep LANCE kinase assay hp70S6K1 (S1 assay 31); assay type: biochemical; details: for hp70S6K1 LANCE IC50/EC50: assay number 31
T3 construct: purchased Cerep (LANCE kinase assay platform, contract assay)

[9] = test system: RKO; test: cells; assay type: cell-based; details: for Basal_Viability ATP RKO IC50/EC50: assay number 29
[10] = test system: ECFC/ADSC co-culture cell nuclei number
[11] = molecular target: T4, hFLT3 (Homo sapiens, UniProt P36888); test: Cerep LANCE kinase assay hFLT3 (S1 assay 35); assay type: biochemical; details: for hFLT3 LANCE IC50/EC50: assay number 35
T4 construct: purchased Cerep (LANCE kinase assay platform, contract assay)

[12] = molecular target: T5, hJAK2 (Homo sapiens, UniProt O60674); test: Cerep LANCE kinase assay hJAK2 (S1 assay 33); assay type: biochemical; details: for hJAK2 LANCE IC50/EC50: assay number 33
T5 construct: purchased Cerep (LANCE kinase assay platform, contract assay)

[13] = test system: Colo320; test: cells; assay type: cell-based; details: for Basal_Viability ATP Colo 320 IC50/EC50: assay number 27
[14] = test system: HT-29; test: cells; assay type: cell-based; details: for Basal_Viability ATP HT-29 IC50/EC50: assay number 28
[15] = test system: SW480; test: cells; assay type: cell-based; details: for Basal_Viability ATP SW480 IC50/EC50: assay number 24
[16] = test system: SNU-C1; test: cells; assay type: cell-based; details: for Basal_Viability ATP SNU-C1 IC50/EC50: assay number 30

T3 sequence (P23443 whole entry): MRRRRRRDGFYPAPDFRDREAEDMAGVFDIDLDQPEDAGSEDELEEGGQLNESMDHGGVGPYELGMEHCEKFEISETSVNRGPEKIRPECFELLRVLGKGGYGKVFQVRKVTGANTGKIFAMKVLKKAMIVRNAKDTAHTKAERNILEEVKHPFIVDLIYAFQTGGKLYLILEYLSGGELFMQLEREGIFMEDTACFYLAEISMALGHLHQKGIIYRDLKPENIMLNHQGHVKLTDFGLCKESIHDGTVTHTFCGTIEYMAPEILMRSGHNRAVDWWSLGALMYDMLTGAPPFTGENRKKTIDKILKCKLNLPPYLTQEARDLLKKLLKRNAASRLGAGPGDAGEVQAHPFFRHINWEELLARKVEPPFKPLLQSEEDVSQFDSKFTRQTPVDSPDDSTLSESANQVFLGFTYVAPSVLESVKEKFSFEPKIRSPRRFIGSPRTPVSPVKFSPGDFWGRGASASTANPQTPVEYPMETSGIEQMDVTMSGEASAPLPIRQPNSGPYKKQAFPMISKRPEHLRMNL
T5 sequence (O60674 whole entry): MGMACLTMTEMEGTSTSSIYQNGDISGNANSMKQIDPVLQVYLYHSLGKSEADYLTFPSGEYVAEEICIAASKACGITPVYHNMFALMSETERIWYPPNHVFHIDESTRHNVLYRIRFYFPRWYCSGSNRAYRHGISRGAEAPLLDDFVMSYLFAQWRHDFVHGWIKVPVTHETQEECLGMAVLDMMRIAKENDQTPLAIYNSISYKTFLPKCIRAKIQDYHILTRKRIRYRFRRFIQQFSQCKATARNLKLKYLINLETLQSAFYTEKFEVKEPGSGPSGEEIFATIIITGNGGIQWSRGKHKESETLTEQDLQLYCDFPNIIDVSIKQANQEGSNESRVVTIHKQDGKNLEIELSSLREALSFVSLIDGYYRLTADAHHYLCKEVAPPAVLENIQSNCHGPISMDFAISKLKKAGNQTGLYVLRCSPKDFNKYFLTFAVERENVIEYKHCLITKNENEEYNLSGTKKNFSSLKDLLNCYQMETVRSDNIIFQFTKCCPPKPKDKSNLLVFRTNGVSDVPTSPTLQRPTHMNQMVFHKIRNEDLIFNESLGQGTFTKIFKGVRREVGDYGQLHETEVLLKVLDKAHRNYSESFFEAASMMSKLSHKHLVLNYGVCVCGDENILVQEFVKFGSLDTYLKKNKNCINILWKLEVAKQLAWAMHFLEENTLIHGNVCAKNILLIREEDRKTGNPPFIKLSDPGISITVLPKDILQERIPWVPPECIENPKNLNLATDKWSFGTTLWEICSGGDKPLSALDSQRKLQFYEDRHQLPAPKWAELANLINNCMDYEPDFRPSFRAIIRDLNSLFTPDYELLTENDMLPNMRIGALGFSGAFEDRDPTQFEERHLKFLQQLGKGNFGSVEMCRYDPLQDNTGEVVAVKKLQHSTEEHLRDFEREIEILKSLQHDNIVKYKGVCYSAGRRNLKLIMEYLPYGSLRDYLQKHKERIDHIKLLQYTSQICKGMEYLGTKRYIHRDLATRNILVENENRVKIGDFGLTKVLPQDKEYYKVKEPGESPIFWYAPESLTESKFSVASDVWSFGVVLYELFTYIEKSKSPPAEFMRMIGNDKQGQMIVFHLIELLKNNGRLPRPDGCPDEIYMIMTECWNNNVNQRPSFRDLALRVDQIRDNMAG
T1 sequence (P35968 20-1356): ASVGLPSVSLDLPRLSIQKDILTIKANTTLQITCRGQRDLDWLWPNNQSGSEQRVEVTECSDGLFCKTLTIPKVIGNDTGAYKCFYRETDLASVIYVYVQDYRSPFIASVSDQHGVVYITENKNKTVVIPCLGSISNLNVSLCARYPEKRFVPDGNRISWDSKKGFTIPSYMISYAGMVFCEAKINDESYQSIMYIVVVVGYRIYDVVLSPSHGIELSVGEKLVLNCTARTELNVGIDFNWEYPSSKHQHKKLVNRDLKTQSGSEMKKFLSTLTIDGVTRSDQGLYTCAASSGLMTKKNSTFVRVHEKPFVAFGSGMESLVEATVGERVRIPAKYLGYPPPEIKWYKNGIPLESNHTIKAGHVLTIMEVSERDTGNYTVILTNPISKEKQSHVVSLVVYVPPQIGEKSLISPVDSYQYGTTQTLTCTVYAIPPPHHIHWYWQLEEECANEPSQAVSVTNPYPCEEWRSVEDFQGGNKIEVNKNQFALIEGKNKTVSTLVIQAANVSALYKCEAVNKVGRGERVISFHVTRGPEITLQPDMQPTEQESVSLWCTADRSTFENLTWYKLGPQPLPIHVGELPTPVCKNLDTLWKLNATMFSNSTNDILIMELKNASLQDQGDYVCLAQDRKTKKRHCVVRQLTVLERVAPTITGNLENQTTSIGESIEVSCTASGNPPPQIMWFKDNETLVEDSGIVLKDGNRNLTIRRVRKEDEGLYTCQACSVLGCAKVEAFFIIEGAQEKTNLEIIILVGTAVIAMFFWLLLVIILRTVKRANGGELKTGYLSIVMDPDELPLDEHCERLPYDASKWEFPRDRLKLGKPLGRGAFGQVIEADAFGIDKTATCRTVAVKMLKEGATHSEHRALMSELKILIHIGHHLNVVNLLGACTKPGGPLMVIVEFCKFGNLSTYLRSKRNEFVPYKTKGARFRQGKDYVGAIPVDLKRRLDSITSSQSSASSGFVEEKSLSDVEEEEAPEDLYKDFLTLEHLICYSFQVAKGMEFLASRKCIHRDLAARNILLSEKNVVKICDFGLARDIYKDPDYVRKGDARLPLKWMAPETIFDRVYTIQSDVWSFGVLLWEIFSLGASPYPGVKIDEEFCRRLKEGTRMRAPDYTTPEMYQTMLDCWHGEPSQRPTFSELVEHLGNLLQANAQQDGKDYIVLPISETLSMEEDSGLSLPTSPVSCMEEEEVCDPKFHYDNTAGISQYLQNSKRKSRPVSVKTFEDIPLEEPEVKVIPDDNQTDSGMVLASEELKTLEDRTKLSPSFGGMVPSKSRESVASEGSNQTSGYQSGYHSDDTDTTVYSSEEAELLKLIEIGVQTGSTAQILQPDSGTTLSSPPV
T4 sequence (P36888 27-993): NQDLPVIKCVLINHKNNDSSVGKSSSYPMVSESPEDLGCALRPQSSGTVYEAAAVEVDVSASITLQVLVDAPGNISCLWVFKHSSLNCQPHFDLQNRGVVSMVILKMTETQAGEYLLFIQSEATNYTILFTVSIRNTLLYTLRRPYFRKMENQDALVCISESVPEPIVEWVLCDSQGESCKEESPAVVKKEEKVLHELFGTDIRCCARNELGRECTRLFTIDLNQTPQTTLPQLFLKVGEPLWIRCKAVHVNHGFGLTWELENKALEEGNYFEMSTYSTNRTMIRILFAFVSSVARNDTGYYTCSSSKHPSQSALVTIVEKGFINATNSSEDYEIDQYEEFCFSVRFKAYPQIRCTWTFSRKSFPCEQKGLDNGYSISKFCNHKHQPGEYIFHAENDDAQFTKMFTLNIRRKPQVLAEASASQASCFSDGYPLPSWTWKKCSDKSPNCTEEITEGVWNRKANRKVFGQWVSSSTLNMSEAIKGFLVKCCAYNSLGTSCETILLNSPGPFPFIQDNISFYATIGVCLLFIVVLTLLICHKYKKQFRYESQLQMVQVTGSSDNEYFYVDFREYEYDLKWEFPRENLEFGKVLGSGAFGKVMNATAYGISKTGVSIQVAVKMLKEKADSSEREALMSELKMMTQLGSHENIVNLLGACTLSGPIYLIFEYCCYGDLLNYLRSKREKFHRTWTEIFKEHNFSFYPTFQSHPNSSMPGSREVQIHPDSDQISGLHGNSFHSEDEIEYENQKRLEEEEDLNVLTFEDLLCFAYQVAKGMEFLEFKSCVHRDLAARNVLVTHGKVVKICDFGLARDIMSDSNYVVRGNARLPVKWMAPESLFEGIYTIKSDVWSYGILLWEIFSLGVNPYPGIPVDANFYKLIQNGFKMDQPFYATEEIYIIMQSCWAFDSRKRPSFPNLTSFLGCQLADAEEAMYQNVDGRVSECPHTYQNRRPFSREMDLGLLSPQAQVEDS
T2 sequence (P49841 whole entry): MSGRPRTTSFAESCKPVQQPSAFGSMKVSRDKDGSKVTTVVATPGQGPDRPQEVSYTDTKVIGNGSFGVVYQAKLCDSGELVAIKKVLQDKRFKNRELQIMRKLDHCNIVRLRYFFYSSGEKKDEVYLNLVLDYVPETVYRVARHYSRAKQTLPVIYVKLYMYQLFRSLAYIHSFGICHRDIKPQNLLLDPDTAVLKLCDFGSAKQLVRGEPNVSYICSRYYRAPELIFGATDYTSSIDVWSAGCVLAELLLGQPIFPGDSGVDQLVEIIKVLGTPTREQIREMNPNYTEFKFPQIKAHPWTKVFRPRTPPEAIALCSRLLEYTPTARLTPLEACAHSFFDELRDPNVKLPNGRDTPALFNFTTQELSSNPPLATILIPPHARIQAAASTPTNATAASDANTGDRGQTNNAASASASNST

| SMILES | Basal_Viability ATP HCT116 IC50/EC50 [1] | Basal_Viability ATP DLD-1 IC50/EC50 ([2]; basal) | Hela CellCycMod PI 2N IC50/EC50 [3] | Hela CellCycMod PI S Phase IC50/EC50 [3] | Hela CellCycMod PI 4N IC50/EC50 [3] | Hela CellCycMod PI MI IC50/EC50 [3] | Hela CellCycMod PI Cell Number IC50/EC50 [3] | hKDR LANCE IC50/EC50 [4] | GSK3b inh pretreated_Viability ATP HCT116 IC50/EC50 [5] | VEGF_ADSC\ECFC Angio CD31 TubeArea IC50/EC50 [6] | hGSK3b LANCE IC50/EC50 [7] | hp70S6K1 LANCE IC50/EC50 [8] | Basal_Viability ATP RKO IC50/EC50 ([9]; basal) | VEGF_ADSC\ECFC Angio Hoechst NucArea IC50/EC50 [10] | hFLT3 LANCE IC50/EC50 [11] | hJAK2 LANCE IC50/EC50 [12] | Basal_Viability ATP Colo 320 IC50/EC50 ([13]; basal) | Basal_Viability ATP HT-29 IC50/EC50 ([14]; basal) | Basal_Viability ATP SW480 IC50/EC50 ([15]; basal) | Basal_Viability ATP SNU-C1 IC50/EC50 ([16]; basal) | further results |
| --- | --- | --- | --- | --- | --- | --- | --- | --- | --- | --- | --- | --- | --- | --- | --- | --- | --- | --- | --- | --- | --- |
| COc1c(C)c2c(c(O)c1C/C=C(\C)CCC(=O)OCCN1CCOCC1)C(=O)OC2 [NCGC00159459-04] | 0.0672 µM | > 20 µM | > 10 µM | 0.0147 µM | > 10 µM | > 10 µM | > 10 µM | > 20 µM | 0.0498 µM | 1.2605 µM | > 20 µM | > 20 µM | 0.1648 µM | > 10 µM | > 20 µM | > 20 µM | 0.001 µM | > 20 µM | 2.5974 µM | > 20 µM | – |
| COc1ccc(-c2ccc3cc(C(=O)O)ccc3c2)cc1C12CC3CC(CC(C3)C1)C2 [NCGC00164617-04] | 0.5897 µM | 0.5971 µM | > 10 µM | > 10 µM | > 10 µM | > 10 µM | 5.4943 µM | 7.1 µM | – | 0.5236 µM | 7.25 µM | > 20 µM | 0.4435 µM | > 10 µM | > 20 µM | 5.57 µM | 0.7871 µM | 1.1248 µM | 0.4051 µM | 1.7798 µM | – |
| Nc1nc(=S)c2[nH]cnc2[nH]1 [NCGC00263442-01] | – | – | – | – | – | – | – | – | – | – | – | – | – | – | – | – | – | – | – | – | IC50 ([1]; read-out: Basal_Viability ATP HCT116 summarized IC50): 0.139 µM; IC50 ([2]; read-out: Basal_Viability ATP DLD-1 summarized IC50): 0.108 µM; IC50 ([3]; read-out: Hela CellCycMod PI 2N summarized IC50): > 10 µM; IC50 ([3]; read-out: Hela CellCycMod PI 4N summarized IC50): > 10 µM; IC50 ([3]; read-out: Hela CellCycMod PI Cell Number summarized IC50): > 10 µM; IC50 ([3]; read-out: Hela CellCycMod PI MI summarized IC50): > 10 µM; IC50 ([3]; read-out: Hela CellCycMod PI S Phase summarized IC50): > 10 µM; IC50 ([4]; read-out: hKDR LANCE summarized IC50): > 20 µM; IC50 ([5]; read-out: GSK3b inh pretreated_Viability ATP HCT116 summarized IC50): 0.163 µM; IC50 ([6]; read-out: VEGF_ADSC\ECFC Angio CD31 TubeArea summarized IC50): 0.622 µM; IC50 ([7]; read-out: hGSK3b LANCE summarized IC50): > 20 µM; IC50 ([8]; read-out: hp70S6K1 LANCE summarized IC50): > 20 µM; IC50 ([9]; read-out: Basal_Viability ATP RKO summarized IC50): 0.343 µM; IC50 ([10]; read-out: VEGF_ADSC\ECFC Angio Hoechst NucArea summarized IC50): > 10 µM; IC50 ([11]; read-out: hFLT3 LANCE summarized IC50): > 20 µM; IC50 ([12]; read-out: hJAK2 LANCE summarized IC50): > 20 µM; IC50 ([13]; read-out: Basal_Viability ATP Colo 320 summarized IC50): 0.373 µM; IC50 ([14]; read-out: Basal_Viability ATP HT-29 summarized IC50): 0.0493 µM; IC50 ([15]; read-out: Basal_Viability ATP SW480 summarized IC50): 0.402 µM; IC50 ([16]; read-out: Basal_Viability ATP SNU-C1 summarized IC50): 4.4 µM |
| O=C(O)c1ccc(-n2nc(-c3ccccc3O)nc2-c2ccccc2O)cc1 [NCGC00263572-01] | 0.4376 µM | – | > 10 µM | – | > 10 µM | > 10 µM | 5.678 µM | > 20 µM | 0.2423 µM | 2.0862 µM | > 20 µM | > 20 µM | – | > 10 µM | > 20 µM | 18.21 µM | – | – | – | – | Basal_Viability ATP DLD-1 IC50/EC50 [2]: 0.6507 µM; Basal_Viability ATP RKO IC50/EC50 [9]: 0.1001 µM; Basal_Viability ATP Colo 320 IC50/EC50 [13]: 0.4085 µM; Basal_Viability ATP HT-29 IC50/EC50 [14]: 0.5159 µM; Basal_Viability ATP SW480 IC50/EC50 [15]: 0.0776 µM; Basal_Viability ATP SNU-C1 IC50/EC50 [16]: 0.2328 µM |
